Earlier results in patent US12569481B2, “Methods of treatment for gastrointestinal motility disorders” (Vanderbilt University, priority 2020, dated 2026).

How the values were obtained:
[1] = biological target: cardiac late sodium current (late INa) (Homo sapiens, UniProt Q14524)
[2] = biological target: KCNH2-encoded hERG K+ channels (Homo sapiens, UniProt Q12809); details: channels found in cardiac muscle and intestinal smooth muscle
[3] = biological target: T1, sodium current in human colon SMCs (Homo sapiens, UniProt Q14524)
T1 construct: sodium current in human colon SMCs; endogenous in cells; host or cells: human colon smooth muscle cells (SMCs)

[4] = test system: human colon muscle strips
[5] = not given; remark: listed apart in the source
[6] = room temperature; over-encapsulated 500 mg extended release tablets

Sequence of cardiac late sodium current (late INa) (Q14524 whole entry): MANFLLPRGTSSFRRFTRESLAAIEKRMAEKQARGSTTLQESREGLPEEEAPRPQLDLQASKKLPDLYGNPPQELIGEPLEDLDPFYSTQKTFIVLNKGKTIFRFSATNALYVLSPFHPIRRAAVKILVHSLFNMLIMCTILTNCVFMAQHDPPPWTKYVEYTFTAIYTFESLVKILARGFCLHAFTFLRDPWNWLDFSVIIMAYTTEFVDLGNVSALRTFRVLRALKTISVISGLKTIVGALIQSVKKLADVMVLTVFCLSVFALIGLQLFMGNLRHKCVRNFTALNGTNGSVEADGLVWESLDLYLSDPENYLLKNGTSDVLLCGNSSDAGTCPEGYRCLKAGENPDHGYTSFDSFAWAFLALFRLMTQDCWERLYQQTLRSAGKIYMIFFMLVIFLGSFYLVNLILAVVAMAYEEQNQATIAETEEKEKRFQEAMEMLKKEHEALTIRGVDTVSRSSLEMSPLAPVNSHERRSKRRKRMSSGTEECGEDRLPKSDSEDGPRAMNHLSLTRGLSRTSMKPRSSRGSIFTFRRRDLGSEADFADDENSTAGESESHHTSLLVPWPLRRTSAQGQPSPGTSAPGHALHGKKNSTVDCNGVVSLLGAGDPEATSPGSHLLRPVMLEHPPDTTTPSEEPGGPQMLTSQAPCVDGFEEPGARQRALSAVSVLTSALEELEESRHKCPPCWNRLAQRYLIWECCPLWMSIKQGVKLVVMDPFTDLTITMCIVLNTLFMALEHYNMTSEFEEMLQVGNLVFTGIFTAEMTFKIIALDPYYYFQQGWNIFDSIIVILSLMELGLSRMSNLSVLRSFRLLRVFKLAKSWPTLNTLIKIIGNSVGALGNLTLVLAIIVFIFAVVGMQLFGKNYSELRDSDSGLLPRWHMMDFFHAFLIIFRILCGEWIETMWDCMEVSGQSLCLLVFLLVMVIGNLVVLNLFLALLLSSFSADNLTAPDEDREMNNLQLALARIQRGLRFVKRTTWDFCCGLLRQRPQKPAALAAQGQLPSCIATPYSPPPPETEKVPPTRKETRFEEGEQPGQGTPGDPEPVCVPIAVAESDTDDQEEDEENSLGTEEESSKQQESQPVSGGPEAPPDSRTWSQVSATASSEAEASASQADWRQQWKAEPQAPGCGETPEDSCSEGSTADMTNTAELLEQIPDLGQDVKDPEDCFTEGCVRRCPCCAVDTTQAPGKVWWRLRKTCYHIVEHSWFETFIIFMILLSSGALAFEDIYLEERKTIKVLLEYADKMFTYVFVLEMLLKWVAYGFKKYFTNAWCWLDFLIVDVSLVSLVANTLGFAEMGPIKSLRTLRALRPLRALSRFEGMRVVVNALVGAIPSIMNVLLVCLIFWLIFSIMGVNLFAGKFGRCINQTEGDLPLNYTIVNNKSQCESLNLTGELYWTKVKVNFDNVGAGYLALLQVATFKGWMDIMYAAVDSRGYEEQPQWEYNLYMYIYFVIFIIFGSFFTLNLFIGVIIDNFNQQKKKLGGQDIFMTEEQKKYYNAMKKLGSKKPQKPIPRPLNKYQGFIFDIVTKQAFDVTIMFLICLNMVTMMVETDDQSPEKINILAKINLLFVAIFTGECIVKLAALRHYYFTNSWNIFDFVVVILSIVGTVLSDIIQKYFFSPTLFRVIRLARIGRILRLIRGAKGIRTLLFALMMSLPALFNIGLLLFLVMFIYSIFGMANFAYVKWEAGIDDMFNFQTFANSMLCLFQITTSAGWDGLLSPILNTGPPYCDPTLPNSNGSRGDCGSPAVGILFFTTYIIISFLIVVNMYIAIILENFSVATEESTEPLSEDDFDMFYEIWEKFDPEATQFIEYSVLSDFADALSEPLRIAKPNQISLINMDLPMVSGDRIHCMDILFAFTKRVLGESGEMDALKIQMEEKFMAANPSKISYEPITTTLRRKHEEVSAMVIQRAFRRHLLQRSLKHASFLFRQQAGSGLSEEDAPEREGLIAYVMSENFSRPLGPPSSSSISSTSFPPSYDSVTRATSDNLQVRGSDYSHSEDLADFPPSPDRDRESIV
Sequence of KCNH2-encoded hERG K+ channels (Q12809 whole entry): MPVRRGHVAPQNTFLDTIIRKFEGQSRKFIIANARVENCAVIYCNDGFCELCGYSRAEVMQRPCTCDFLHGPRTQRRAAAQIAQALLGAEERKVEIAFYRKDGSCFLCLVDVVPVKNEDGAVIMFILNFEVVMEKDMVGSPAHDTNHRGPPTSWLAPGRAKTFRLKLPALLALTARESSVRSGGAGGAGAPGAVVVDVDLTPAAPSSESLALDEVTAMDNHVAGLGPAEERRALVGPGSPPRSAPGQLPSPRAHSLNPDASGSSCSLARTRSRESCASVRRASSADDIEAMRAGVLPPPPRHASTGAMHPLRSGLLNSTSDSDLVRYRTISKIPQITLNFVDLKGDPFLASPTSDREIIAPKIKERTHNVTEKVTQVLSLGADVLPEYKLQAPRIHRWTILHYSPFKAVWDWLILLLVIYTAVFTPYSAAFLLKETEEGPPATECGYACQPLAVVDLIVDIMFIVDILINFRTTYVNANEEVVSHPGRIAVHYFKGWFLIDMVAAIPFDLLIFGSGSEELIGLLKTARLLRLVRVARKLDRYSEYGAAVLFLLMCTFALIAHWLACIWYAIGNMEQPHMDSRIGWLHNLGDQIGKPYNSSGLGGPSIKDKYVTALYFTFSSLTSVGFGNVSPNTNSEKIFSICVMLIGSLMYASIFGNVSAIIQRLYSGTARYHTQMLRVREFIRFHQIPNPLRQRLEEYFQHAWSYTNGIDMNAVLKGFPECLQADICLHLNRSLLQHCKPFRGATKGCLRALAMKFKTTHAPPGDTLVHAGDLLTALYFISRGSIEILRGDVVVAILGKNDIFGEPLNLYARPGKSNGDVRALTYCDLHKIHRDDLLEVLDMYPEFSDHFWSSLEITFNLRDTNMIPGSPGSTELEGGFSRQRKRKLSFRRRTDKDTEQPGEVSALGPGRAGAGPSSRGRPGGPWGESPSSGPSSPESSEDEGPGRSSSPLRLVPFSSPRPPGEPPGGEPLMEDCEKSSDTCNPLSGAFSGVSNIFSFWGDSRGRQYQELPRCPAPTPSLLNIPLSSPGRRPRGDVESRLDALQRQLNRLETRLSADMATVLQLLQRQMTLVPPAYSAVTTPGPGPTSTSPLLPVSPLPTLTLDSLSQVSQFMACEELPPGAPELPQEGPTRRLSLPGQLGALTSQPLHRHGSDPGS

## COc1ccccc1OCC(O)CN1CCN(CC(=O)Nc2c(C)cccc2C)CC1 (centres unmarked) [Ranolazine]
[1]; late INa vs peak INa
  selectivity for late INa vs peak INa: nine
[1]; residual Na+ flowing after peak INa during an action potential
  inhibition of cardiac late sodium current (late INa): inhibitor
[2]
  block of KCNH2-encoded hERG K+ channels: block
[3]
  effect on peak amplitude and mechanosensitivity of sodium current: blocks both peak amplitude and mechanosensitivity
[4]
  effect on contractility: decreases contractility
Cytochrome P-450 3A enzyme (CYP3A) pathway in the liver
  metabolism: rapidly metabolized
In vivo
  half-life: seven
ingested, urine
  ingested ranolazine excreted in the urine: At least 70%
[5]; dizziness, nausea, constipation, and headache
  patients experiencing the most common side effects: less than 2%
[5]; used properly and not concurrently with contraindicated drugs
  safety and tolerability: safe and well-tolerated
[6]
  storage time: up to 12 months
